In US9447044B2, “Thioaryl derivatives as GPR120 agonists” (LG LIFE SCIENCES LTD., priority 2012, dated 2016):

What follows are compounds tested against T1, hGPR120 (Homo sapiens, UniProt Q5NUL3) (assay: Measurement of activity of GPR120 agonist (cell-based assay), calcium fluorescence). Conditions: CHO-K1 cells expressing Ga16 and hGPR120; Calcium 5 dye fluorescence; activity class.
T1 construct: expressed in transfected cells; host or cells: CHO-K1
T1 sequence (Q5NUL3 1-361): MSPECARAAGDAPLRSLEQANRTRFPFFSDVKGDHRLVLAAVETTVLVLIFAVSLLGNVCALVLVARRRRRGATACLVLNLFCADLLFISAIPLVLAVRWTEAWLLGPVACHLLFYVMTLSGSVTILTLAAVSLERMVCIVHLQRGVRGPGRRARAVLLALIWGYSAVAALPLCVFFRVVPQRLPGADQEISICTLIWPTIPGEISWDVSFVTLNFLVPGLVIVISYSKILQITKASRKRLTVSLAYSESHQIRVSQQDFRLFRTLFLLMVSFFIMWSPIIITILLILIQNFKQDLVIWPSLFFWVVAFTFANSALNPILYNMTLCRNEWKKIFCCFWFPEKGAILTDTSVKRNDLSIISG
Protocol: CHO-K1 cells expressing Ga16 and hGPR120 were dispensed into each well of a 96-well plate (3×10^4 cells/100 μl/well) and then incubated in 5% CO2, 37° C. incubator for 18 hours. Each well was treated with 100 μl of Calcium 5 dye (Molecular Devices) solution including 2% DMSO and then incubated in 5% CO2, 37° C. incubator for 1 hour. Serially diluted GPR120 agonists were prepared to a final concentration of 0.5% DMSO in a 96-well plate. Each well was treated with 50 μl of the agonist compounds using Plexstation II, and then fluorescence was measured at Ex 485 nm, Em 525 nm.
Fluorescence increased by the serially diluted GPR120 agonists is calculated as a relative percent (%) value based on the fluorescence represented by the treatment of 0.1% DMSO only. […] The calculation of measurement was carried out by using statistical software (Prizm).
Activity is denoted based on the following criteria: A=>20 μM, B=[…], C=2˜0.2 μM, D=<0.2 μM
`CC(Cc1cc(F)c(OCc2cccnc2SC2CCC2)c(F)c1)C(=O)O` (stereo not shown) [Example 56, 3-[4-(2-cyclobutylsulfanyl-pyridin-3-ylmethoxy)-3,5-difluoro-phenyl]-2-methyl-propionic acid] was tested, and the EC50 was less than 200 nM.
`COc1cc(CCC(=O)O)ccc1OCc1cccnc1SC1CCCC1` [Example 58, 3-[4-(2-cyclopentylsulfanyl-pyridin-3-ylmethoxy)-3-methoxy-phenyl]-propionic acid] was tested, and the EC50 was less than 200 nM.
`CC(C)Sc1ncccc1COc1ccc2c(c1)OCC2CC(=O)O` (stereo not shown) [Example 59, [6-(2-isopropylsulfanyl-pyridin-3-ylmethoxy)-2,3-dihydro-benzofuran-3-yl]-acetic acid] was tested, and the EC50 was 200 to 2000 nM.
For `CC(C)Sc1ncccc1COc1ccc(CC(C)C(=O)O)cc1F` (stereo not shown) [Example 60, 3-[3-fluoro-4-(2-isopropylsulfanyl-pyridin-3-ylmethoxy)-phenyl]-2-methyl-propionic acid], the EC50 was less than 200 nM.
In the case of `CCCCSc1ncccc1COc1ccc(CC(C)C(=O)O)cc1F` (stereo not shown) [Example 61, 3-[4-(2-butylsulfanyl-pyridin-3-ylmethoxy)-3-fluoro-phenyl]-2-methyl-propionic acid], the EC50 is reported as less than 200 nM.
`O=C(O)C1CC1c1cc(F)c(OCc2cccnc2SC2CCCC2)c(F)c1` (stereo not shown) [Example 62, 2-[4-(2-cyclopentylsulfanyl-pyridin-3-ylmethoxy)-3,5-difluoro-phenyl]-cyclopropane carboxylic acid] gave an EC50 of less than 200 nM.
`O=C(O)C1CC1c1cc(F)c(OCc2cccnc2SCC2CC2)c(F)c1` (stereo not shown) [Example 63, 2-[4-(2-cyclopropylmethylsulfanyl-pyridin-3-ylmethoxy)-3,5-difluoro-phenyl]-cyclopropane carboxylic acid] gave an EC50 of less than 200 nM.
`CC(C)Sc1ncccc1COc1c(F)cc(C2CC2C(=O)O)cc1F` (stereo not shown) [Example 65, 2-[3,5-difluoro-4-(2-isopropylsulfanyl-pyridin-3-ylmethoxy)-phenyl]-cyclopropane carboxylic acid] was tested, and the EC50 was less than 200 nM.
`CCCCSc1ncccc1COc1c(F)cc(C2CC2C(=O)O)cc1F` (stereo not shown) [Example 66, 2-[4-(2-butylsulfanyl-pyridin-3-ylmethoxy)-3,5-difluoro-phenyl]-cyclopropane carboxylic acid] showed an EC50 of less than 200 nM.
In the case of `CC(C)Sc1cccc(COc2ccc3c(c2)OCC3CC(=O)O)n1` (stereo not shown) [Example 67, [6-(6-isopropylsulfanyl-pyridin-2-ylmethoxy)-2,3-dihydro-benzofuran-3-yl]-acetic acid], the EC50 is reported as 200 to 2000 nM.
With `O=C(O)CC1COc2cc(OCc3cccc(SC4CCCC4)n3)ccc21` (stereo not shown) [Example 68, [6-(6-cyclopentylsulfanyl-pyridin-2-ylmethoxy)-2,3-dihydro-benzofuran-3-yl]-acetic acid] the EC50 was 200 to 2000 nM.
With `CC(C)Sc1ncccc1COc1ccc(CC(C)(C)C(=O)O)cc1` [Example 69, 3-[4-(2-isopropylsulfanyl-pyridin-3-ylmethoxy)-phenyl]-2,2-dimethyl-propionic acid] the EC50 was 200 to 2000 nM.
`Cc1ncc(COc2c(F)cc(CCC(=O)O)cc2F)c(SC(C)C)n1` [Example 71, 3-[3,5-difluoro-4-(4-isopropylsulfanyl-2-methyl-pyrimidin-5-ylmethoxy)-phenyl]-prop ionic acid] showed an EC50 of 200 to 2000 nM.
Work on `COc1cc(CCC(=O)O)ccc1OCc1cccc(SC(C)C)n1` [Example 72, 3-[4-(6-isopropylsulfanyl-pyridin-2-ylmethoxy)-3-methoxy-phenyl]-propionic acid] yielded an EC50 of less than 200 nM.
`COc1cc(CCC(=O)O)ccc1OCc1cccc(SC2CCCC2)n1` [Example 73, 3-[4-(6-cyclopentylsulfanyl-pyridin-2-ylmethoxy)-3-methoxy-phenyl]-propionic acid] showed an EC50 of 200 to 2000 nM.
Work on `O=C(O)CC1COc2cc(OCc3cccnc3SC3CCCC3)ccc21` (stereo not shown) [Example 74, [6-(2-cyclopentylsulfanyl-pyridin-3-ylmethoxy)-2,3-dihydro-benzofuran-3-yl]-acetic acid] yielded an EC50 of less than 200 nM.
For `O=C(O)C1CC1c1cc(F)c(OCc2cccc(SC3CCC3)n2)c(F)c1` (stereo not shown) [Example 75, 2-[4-(6-cyclobutylsulfanyl-pyridin-2-ylmethoxy)-3,5-difluoro-phenyl]-cyclopropane carboxylic acid], the EC50 was less than 200 nM.
With `COc1ccc(COc2c(F)cc(CCC(=O)O)cc2F)c(SC2CCCC2)n1` [Example 76, 3-[4-(2-cyclopentylsulfanyl-6-methoxy-pyridin-3-ylmethoxy)-3,5-difluoro-phenyl]-propionic acid] the EC50 was 200 to 2000 nM.
In the case of `CC(C)Sc1ncccc1COc1ccc(CCC(=O)O)cc1Cl` [Example 77, 3-[3-chloro-4-(2-isopropylsulfanyl-pyridin-3-ylmethoxy)-phenyl]-propionic acid], the EC50 is reported as less than 200 nM.
In the case of `O=C(O)CCc1ccc(OCc2cccnc2SC2CCCC2)c(Cl)c1` [Example 78, 3-[3-chloro-4-(2-cyclopentylsulfanyl-pyridin-3-ylmethoxy)-phenyl]-propionic acid], the EC50 is reported as less than 200 nM.
In the case of `Cc1c(CCC(=O)O)ccc(OCc2cccnc2SC2CCCC2)c1C` [Example 80, 3-[4-(2-cyclopentylsulfanyl-pyridin-3-ylmethoxy)-2,3-dimethyl-phenyl]-propionic acid], the EC50 is reported as less than 200 nM.
In the case of `O=C(O)C[C@@H]1COc2cc(OCc3cccnc3SC3CCCC3)ccc21` [Example 81, [(S)-6-(2-cyclopentylsulfanyl-pyridin-3-ylmethoxy)-2,3-dihydro-benzofuran-3-yl]-acetic acid], the EC50 is reported as less than 200 nM.
Compound `O=C(O)C[C@H]1COc2cc(OCc3cccnc3SC3CCCC3)ccc21` [Example 82, [(R)-6-(2-cyclopentylsulfanyl-pyridin-3-ylmethoxy)-2,3-dihydro-benzofuran-3-yl]-acetic acid] has an EC50 of less than 200 nM.
With `O=C(O)C1CC1c1ccc(OCc2cccnc2SCC2CC2)c(F)c1` (stereo not shown) [Example 84, 2-[4-(2-cyclopropylmethylsulfanyl-pyridin-3-ylmethoxy)-3-fluoro-phenyl]-cyclopropane carboxylic acid] the EC50 was less than 200 nM.
With `O=C(O)C1CC1c1ccc(OCc2cccc(SC3CCCC3)n2)c(F)c1` (stereo not shown) [Example 85, 2-[4-(6-cyclopentylsulfanyl-pyridin-2-ylmethoxy)-3-fluoro-phenyl]-cyclopropane carboxylic acid] the EC50 was less than 200 nM.
`O=C(O)C1CC1c1ccc(OCc2cccc(SC3CCC3)n2)c(F)c1` (stereo not shown) [Example 86, 2-[4-(6-cyclobutylsulfanyl-pyridin-2-ylmethoxy)-3-fluoro-phenyl]-cyclopropane carboxylic acid] gave an EC50 of less than 200 nM.
With `CC(C)Sc1ncccc1COc1ccc(C2CC2C(=O)O)c(Cl)c1` (stereo not shown) [Example 89, 2-[2-chloro-4-(2-isopropylsulfanyl-pyridin-3-ylmethoxy)-phenyl]-cyclopropane carboxylic acid] the EC50 was 200 to 2000 nM.
Compound `O=C(O)C1CC1c1ccc(OCc2cccc(SC3CCC3)n2)cc1Cl` (stereo not shown) [Example 90] has an EC50 of less than 200 nM.
`CC(Cc1ccc(OCc2cccnc2SCC2CC2)c(Cl)c1)C(=O)O` (stereo not shown) [Example 91, 3-[3-chloro-4-(2-cyclopropylmethylsulfanyl-pyridin-3-ylmethoxy)-phenyl]-2-methyl-propionic acid] gave an EC50 of less than 200 nM.
Work on `CCCSc1ncccc1COc1ccc(CC(C)C(=O)O)cc1Cl` (stereo not shown) [Example 92, 3-[3-chloro-4-(2-propylsulfanyl-pyridin-3-ylmethoxy)-phenyl]-2-methyl-propionic acid] yielded an EC50 of less than 200 nM.

Same assay, conditions: CHO-K1 cells expressing Ga16 and hGPR120; Calcium 5 dye fluorescence; numeric value
For `COc1cc(CCC(=O)O)ccc1OCc1cccnc1SC(C)C` [Example 57, 3-[4-(2-isopropylsulfanyl-pyridin-3-ylmethoxy)-3-methoxy-phenyl]-propionic acid], the EC50 was 454 nM.
`CC(C)Sc1cccc(COc2c(F)cc(C3CC3C(=O)O)cc2F)n1` (stereo not shown) [Example 64, 2-[3,5-difluoro-4-(6-isopropylsulfanyl-pyridin-2-ylmethoxy)-phenyl]-cyclopropane carboxylic acid] showed an EC50 of 108 nM.
Work on `CC(C)Sc1cccc(COc2ccc(CC(C)(C)C(=O)O)cc2)n1` [Example 70, 3-[4-(6-isopropylsulfanyl-pyridin-2-ylmethoxy)-phenyl]-2,2-dimethyl-propionic acid] yielded an EC50 of 1880 nM.
Work on `Cc1c(CCC(=O)O)ccc(OCc2cccnc2SC(C)C)c1C` [Example 79, 3-[4-(2-isopropylsulfanyl-pyridin-3-ylmethoxy)-2,3-dimethyl-phenyl]-propionic acid] yielded an EC50 of 33 nM.
For `CC(C)Sc1ncccc1COc1ccc(C2CC2C(=O)O)cc1F` (stereo not shown) [Example 83, 2-[3-fluoro-4-(2-isopropylsulfanyl-pyridin-3-ylmethoxy)-phenyl]-cyclopropane carboxylic acid], the EC50 was 110 nM.
`O=C(O)C1CC1c1ccc(OCc2cccnc2SC2CCCC2)c(F)c1` (stereo not shown) [Example 87, 2-[4-(2-cyclopentylsulfanyl-pyridin-3-ylmethoxy)-3-fluoro-phenyl]-cyclopropane carboxylic acid] showed an EC50 of 64000 nM.
`O=C(O)C1CC1c1ccc(OCc2cccnc2SC2CCC2)c(F)c1` (stereo not shown) [Example 88, 2-[4-(2-cyclobutylsulfanyl-pyridin-3-ylmethoxy)-3-fluoro-phenyl]-cyclopropane carboxylic acid] showed an EC50 of 57000 nM.
